Target: T1, Tyk2 (Homo sapiens, UniProt P29597)
T1 construct: purchased Invitrogen
Assay: Tyk2 enzyme inhibition test (LANCE method)
Assay type: biochemical
Details: 1 uM test compound, ULight-JAK1 peptide substrate, well without enzyme = 100% inhibition, read-out: Tyk2 enzyme inhibitory activity (%, 1 uM)
Description: Tyk2 enzyme inhibitory activity of test compounds was measured by LANCE method (PerkinElmer). First, a test compound diluted with assay buffer (50 mM HEPES (pH=7.5), 10 mM MgCl2, 1 mM EGTA, 2 mM DTT, 0.01% Tween20, 0.01% BSA) was added to 384-well plate at 2 μL each. Then, a Tyk2 (Invitrogen) solution and a fluorescence-labeled peptide substrate (ULight-JAK1, PerkinElmer) solution diluted with assay buffer at 375 ng/mL and 300 nM, respectively were added at 2 μL each. Then, enzyme reaction was started by adding 2 μL each of ATP solution prepared with assay buffer at 30 μM. After the reaction at room temperature for 1 hr, Detection Buffer (PerkinElmer) prepared to be 20 mM EDTA, 4 nM europium-labeled anti-phosphotyrosine antibody (PerkinElmer) was added at 6 μL each. After standing at room temperature for 1 hr, fluorescence intensity (excitation wavelength 340 nm, fluorescence wavelength 665 nm, delay time 100 microsecond) was measured by a plate reader, Envision (PerkinElmer). The inhibitory activity of each compound was calculated as relative value where fluorescence intensity of a well without enzyme is considered as 100% inhibition.

T1 sequence (P29597 whole entry): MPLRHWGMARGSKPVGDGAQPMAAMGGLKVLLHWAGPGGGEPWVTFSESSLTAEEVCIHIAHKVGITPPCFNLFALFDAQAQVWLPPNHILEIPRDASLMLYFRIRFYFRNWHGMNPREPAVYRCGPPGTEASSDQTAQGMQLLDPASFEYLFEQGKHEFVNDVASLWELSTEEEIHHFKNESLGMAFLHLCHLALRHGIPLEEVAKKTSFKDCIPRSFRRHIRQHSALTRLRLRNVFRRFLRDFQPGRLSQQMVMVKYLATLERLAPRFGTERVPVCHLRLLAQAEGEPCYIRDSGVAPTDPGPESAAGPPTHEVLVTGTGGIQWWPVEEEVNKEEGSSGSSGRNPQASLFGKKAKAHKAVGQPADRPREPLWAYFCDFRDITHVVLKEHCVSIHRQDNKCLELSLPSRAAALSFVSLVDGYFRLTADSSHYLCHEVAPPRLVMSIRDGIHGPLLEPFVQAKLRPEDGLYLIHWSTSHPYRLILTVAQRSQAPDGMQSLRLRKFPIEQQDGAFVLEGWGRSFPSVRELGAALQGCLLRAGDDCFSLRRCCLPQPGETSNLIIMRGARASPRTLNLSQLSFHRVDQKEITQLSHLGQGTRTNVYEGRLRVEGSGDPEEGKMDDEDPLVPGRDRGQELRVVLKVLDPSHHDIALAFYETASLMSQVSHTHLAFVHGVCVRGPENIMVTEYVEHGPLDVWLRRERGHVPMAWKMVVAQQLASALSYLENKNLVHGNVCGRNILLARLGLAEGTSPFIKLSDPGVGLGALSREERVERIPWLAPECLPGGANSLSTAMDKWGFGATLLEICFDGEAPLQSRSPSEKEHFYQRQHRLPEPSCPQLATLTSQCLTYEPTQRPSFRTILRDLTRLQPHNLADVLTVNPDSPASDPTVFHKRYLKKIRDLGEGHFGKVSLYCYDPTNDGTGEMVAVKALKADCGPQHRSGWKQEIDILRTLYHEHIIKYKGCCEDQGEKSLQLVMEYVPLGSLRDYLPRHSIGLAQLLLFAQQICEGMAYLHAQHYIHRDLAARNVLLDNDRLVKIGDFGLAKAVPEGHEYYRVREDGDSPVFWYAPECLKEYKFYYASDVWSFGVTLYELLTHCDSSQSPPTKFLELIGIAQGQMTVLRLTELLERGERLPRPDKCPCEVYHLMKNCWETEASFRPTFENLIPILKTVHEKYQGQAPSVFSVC

| Structure (SMILES) | inhibition at 1 µM [%] |
| --- | --- |
| CC(C)C(C)n1cc(-c2ccn(C)n2)c2[nH]nc(N)c2c1=O (stereo not drawn) [Example 13, 3-amino-5-(3-methylbutan-2-yl)-7-(1-methyl-1H-pyrazol-3-yl)-1,5-dihydro-4H-pyrazolo[4,3-c]pyridin-4-one] | 98 |
| CC1CCCCC1n1cc(-c2ccn(C)n2)c2[nH]nc(N)c2c1=O (stereo not drawn) [Example 14, 3-amino-5-(2-methylcyclohexyl)-7-(1-methyl-1H-pyrazol-3-yl)-1,5-dihydro-4H-pyrazolo[4,3-c]pyridin-4-one] | 98 |
| Cc1ccccc1-n1cc(Br)c2[nH]nc(N)c2c1=O [Example 1, 3-amino-7-bromo-5-(2-methylphenyl)-1,5-dihydro-4H-pyrazolo[4,3-c]pyridin-4-one] | 40 |
| Nc1n[nH]c2c(-c3csc(CN4CCCC4)c3)cn(-c3ccccc3Cl)c(=O)c12 [Example 38, 3-amino-5-(2-chlorophenyl)-7-(5-(pyrrolidin-1-ylmethyl)-3-thienyl)-1,5-dihydro-4H-pyrazolo[4,3-c]pyridin-4-one] | 95 |
| Cn1ccc(-c2cn(-c3ccccc3C(F)(F)F)c(=O)c3c(N)n[nH]c23)n1 [Example 43, 3-amino-7-(1-methyl-1H-pyrazol-3-yl)-5-(2-(trifluoromethyl)phenyl)-1,5-dihydro-4H-pyrazolo[4,3-c] pyridin-4-one] | 92 |
| Cn1ccc(-c2cn(-c3c(F)cccc3F)c(=O)c3c(N)n[nH]c23)n1 [Example 15, 3-amino-5-(2,6-difluorophenyl)-7-(1-methyl-1H-pyrazol-3-yl)-1,5-dihydro-4H-pyrazolo[4,3-c]pyridin-4-one] | 100 |

Further lines, results first:

| inhibition at 1 µM [%] | Structure (SMILES) |
| --- | --- |
| 100 | N#Cc1ccnc(-c2cn(-c3ccccc3Cl)c(=O)c3c(N)n[nH]c23)c1 [Example 28, 2-(3-amino-5-(2-chlorophenyl)-4-oxo-4,5-dihydro-1H-pyrazolo[4,3-c]pyridin-7-yl)isonicotinonitrile] |
| 82 | N#Cc1cc2[nH]nc(N)c2c(=O)n1-c1ccccc1Cl [Example 16, 3-amino-5-(2-chlorophenyl)-4-oxo-4,5-dihydro-1H-pyrazolo[4,3-c]pyridine-6-carbonitrile] |
| 98 | Nc1n[nH]c2c(-c3ccccn3)cn(-c3ccccc3Cl)c(=O)c12 [Example 24, 3-amino-5-(2-chlorophenyl)-7-(pyridin-2-yl)-1,5-dihydro-4H-pyrazolo[4,3-c]pyridin-4-one] |

— patent publication US9085578B2, “Heterocyclic compound” (Takeda Pharmaceutical Company Limited, priority 2012, dated 2015)
